One assay deals with T1, PDK1 kinase (Homo sapiens, UniProt O15530).
T1 sequence (O15530 1-556): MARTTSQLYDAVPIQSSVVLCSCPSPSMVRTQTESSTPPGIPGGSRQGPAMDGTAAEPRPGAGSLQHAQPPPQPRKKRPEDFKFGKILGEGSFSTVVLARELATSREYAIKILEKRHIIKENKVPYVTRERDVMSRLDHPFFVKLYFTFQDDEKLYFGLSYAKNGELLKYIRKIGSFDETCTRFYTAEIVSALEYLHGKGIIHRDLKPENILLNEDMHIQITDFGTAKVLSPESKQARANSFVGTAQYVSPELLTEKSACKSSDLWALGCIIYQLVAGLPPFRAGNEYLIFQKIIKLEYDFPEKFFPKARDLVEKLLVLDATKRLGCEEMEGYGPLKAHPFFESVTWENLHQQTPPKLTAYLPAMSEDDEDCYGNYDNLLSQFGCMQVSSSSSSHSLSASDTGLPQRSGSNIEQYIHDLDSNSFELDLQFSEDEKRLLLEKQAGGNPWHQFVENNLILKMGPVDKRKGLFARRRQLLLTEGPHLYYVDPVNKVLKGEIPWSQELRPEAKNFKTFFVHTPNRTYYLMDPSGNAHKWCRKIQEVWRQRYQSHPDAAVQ
Description: PDK1 Kinase Alpha Screen Assay. Format: biochemical. A digest of the protocol: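 Test compounds were incubated with PDK1 kinase, 10 uM ATP and 50 nM biotinylated peptide substrate for 3-18 hours at pH 7.5 with 2.5% DMSO. Peptide phosphorylation was then detected by AlphaScreen proximity luminescence using a phospho-(Ser/Thr) PKA substrate antibody.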

Another assay concerns PC-3 cells. Description: Cell Proliferation Assay (Cell Titer Glo), PC-3 cell line. Type of assay: cell-based. The settings on record: read-out: CPEC50 PC3. In short, it runs like this:
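PC-3 cells, 1000 cells/well, left to adhere 3-5 h, then exposed for 3 days at 37° C to compounds as 1:3 serial dilutions from 500× DMSO stocks diluted in growth medium. Medium then replaced with fresh medium and viability read by Cell Titer Glo luminescence.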
(ATP-based viability assays read luminescence as a measure of living cells.)

[1] abbreviates: head of the second part of Table 4: BV11261, read-out: PDK1 BV11261.

Read-outs that look alike come from different tables or passages of the source.

As to `CC(C)NC(=O)c1ccc(Nc2ncc3cccc(-c4ccc(NCCN5CCCC5)nc4)c3n2)cc1` [Compound 993, N-isopropyl-4-(8-(6-(2-(pyrrolidin-1-yl)ethylamino)pyridin-3-yl)quinazolin-2-ylamino)benzamide], on PDK1 kinase (read-out: PDK1 IC50), the IC50 is below 5 µM. The EC50 with PC-3 cells (Homo sapiens, PC-3, PC3 cells) was below 5 µM.
With `Fc1ccc(Nc2ncc3cccc(-c4ccc(NCCN5CCCC5)nc4)c3n2)cc1` [Compound 994, N-(4-fluorophenyl)-8-(6-(2-(pyrrolidin-1-yl)ethylamino)pyridin-3-yl)quinazolin-2-amine], on PDK1 kinase (read-out: PDK1 IC50), the IC50 is below 5 µM. In the assay on PC-3 cells (Homo sapiens, PC-3, PC3 cells), the EC50 was below 5 µM.
For `Clc1ccc(Nc2ncc3cccc(-c4ccc(NCCN5CCCC5)nc4)c3n2)cc1` [Compound 995, N-(4-chorophenyl)-8-(6-(2-(pyrrolidin-1-yl)ethylamino)pyridin-3-yl)quinazolin-2-amine], at PDK1 kinase (read-out: PDK1 IC50), the IC50 was below 5 µM. In addition, the EC50 in the assay on PC-3 cells (PC3 cells) was below 5 µM.
As to `c1cc(-c2ccc(NCCN3CCCC3)nc2)c2nc(Nc3ccc(N4CCOCC4)cc3)ncc2c1` [Compound 996, N-(4-morpholinophenyl)-8-(6-(2-(pyrrolidin-1-yl)ethylamino)pyridin-3-yl)quinazolin-2-amine], on PDK1 kinase (read-out: PDK1 IC50), the IC50 is below 5 µM. Further, the EC50 in the assay on PC-3 cells (Homo sapiens, PC-3, PC3 cells) was below 5 µM.
In the case of `CNS(=O)(=O)Cc1ccc(Nc2ncc3cccc(-c4ccc(NCCN5CCCC5)nc4)c3n2)cc1` [Compound 998, N-methyl-1-(4-(8-(6-(2-(pyrrolidin-1-yl)ethylamino)pyridin-3-yl)quinazolin-2-ylamino)phenyl)methanesulfonamide], the IC50 at PDK1 kinase (read-out: PDK1 IC50) is below 5 µM. The EC50 with PC-3 cells (Homo sapiens, PC-3, PC3 cells) is below 5 µM.
For the molecule `CN1CCN(c2ccc(-c3cccc4cnc(Nc5ccc(F)cc5)nc34)cn2)CC1` [Compound 999, N-(4-fluorophenyl)-8-(6-(4-methylpiperazin-1-yl)pyridin-3-yl)quinazolin-2-amine], the IC50 on PDK1 kinase (read-out: PDK1 IC50) is below 5 µM. For the same molecule, the EC50 in the assay on PC-3 cells (Homo sapiens, PC-3, PC3 cells) was below 5 µM.
For the molecule `O=c1[nH]c2ccc(Nc3ncc4cccc(-c5ccc(NCCN6CCCC6)nc5)c4n3)cc2[nH]1` [Compound 1000, 5-(8-(6-(2-(pyrrolidin-1-yl)ethylamino)pyridin-3-yl)quinazolin-2-ylamino)-1H-benzo[d]imidazol-2(3H)-one], the IC50 on PDK1 kinase (read-out: PDK1 IC50) is below 5 µM. For the same molecule, the EC50 with PC-3 cells (Homo sapiens, PC-3, PC3 cells) is below 5 µM.
In the case of `Cc1ccc(Nc2ncc3cccc(-c4ccc(NCCN5CCCC5)nc4)c3n2)cc1NS(C)(=O)=O` [Compound 1001, N-(2-methyl-5-(8-(6-(2-(pyrrolidin-1-yl)ethylamino)pyridin-3-yl)quinazolin-2-ylamino)phenyl)methanesulfonamide], the IC50 on PDK1 kinase (read-out: PDK1 IC50) is below 5 µM. In the assay on PC-3 cells (Homo sapiens, PC-3, PC3 cells), the EC50 was below 5 µM.
In the case of `CC(C)NS(=O)(=O)c1ccc(Nc2ncc3cccc(-c4ccc(NCCN5CCCC5)nc4)c3n2)cc1` [Compound 1016, N-isopropyl-4-(8-(6-(2-(pyrrolidin-1-yl)ethylamino)pyridin-3-yl)quinazolin-2-ylamino)benzenesulfonamide], the IC50 on PDK1 kinase (read-out: PDK1 IC50) is below 5 µM. The EC50 in the assay with PC-3 cells (Homo sapiens, PC-3, PC3 cells) is below 5 µM.
As to `Fc1ccc(Nc2ncc3cccc(-c4ccc(NCCN5CCCC5)nc4)c3n2)c(F)c1` [Compound 1017, N-(2,4-difluorophenyl)-8-(6-(2-(pyrrolidin-1-yl)ethylamino)pyridin-3-yl)quinazolin-2-amine], the IC50 at PDK1 kinase (read-out: PDK1 IC50) is below 5 µM. The EC50 with PC-3 cells (Homo sapiens, PC-3, PC3 cells) was below 5 µM.
For the molecule `Fc1ccc(Nc2ncc3cccc(-c4ccc(NCCN5CCCC5)nc4)c3n2)cc1F` [Compound 1018, N-(3,4-difluorophenyl)-8-(6-(2-(pyrrolidin-1-yl)ethylamino)pyridin-3-yl)quinazolin-2-amine], the IC50 on PDK1 kinase (read-out: PDK1 IC50) was below 5 µM. In the assay with PC-3 cells (Homo sapiens, PC-3, PC3 cells), the EC50 is below 5 µM.
Regarding `OCCc1ccc(Nc2ncc3cccc(-c4ccc(NCCN5CCCC5)nc4)c3n2)cc1` [Compound 1019, 2-(4-(8-(6-(2-(pyrrolidin-1-yl)elhylamino)pyridin-3-yl)quinazolin-2-ylamino)phenyl)ethanol], the IC50 on PDK1 kinase (read-out: PDK1 IC50) is below 5 µM. Further, the EC50 in the assay with PC-3 cells (Homo sapiens, PC-3, PC3 cells) was below 5 µM.
As for `Fc1cccc(Nc2ncc3cccc(-c4ccc(NCCN5CCCC5)nc4)c3n2)c1` [Compound 1020, N-(3-fluorophenyl)-8-(6-(2-(pyrrolidin-1-yl)ethylamino)pyridin-3-yl)quinazolin-2-amine], the IC50 on PDK1 kinase (read-out: PDK1 IC50) was below 5 µM. In addition, in the assay with PC-3 cells (Homo sapiens, PC-3, PC3 cells), the EC50 was below 5 µM.
Consider `Cn1cnnc1-c1cccc(Nc2ncc3cccc(-c4ccc(NCCN5CCCC5)nc4)c3n2)c1` [Compound 1021, N-(3-(4-methyl-4H-1,2,4-triazol-3-yl)phenyl)-8-(6-(2-(pyrrolidin-1-yl)ethylamino)pyridin-3-yl)quinazolin-2-amine], for which the IC50 on PDK1 kinase (read-out: PDK1 IC50) is below 5 µM. For the same molecule, in the assay on PC-3 cells (Homo sapiens, PC-3, PC3 cells), the EC50 was below 5 µM.
`c1cc(Nc2ncc3cccc(-c4ccc(NCCN5CCCC5)nc4)c3n2)cc(N2CCOCC2)c1` [Compound 1022, N-(3-morpholinophenyl)-8-(6-(2-(pyrrolidin-1-yl)ethylamino)pyridin-3-yl)quinazolin-2-amine]: the IC50 on PDK1 kinase (read-out: PDK1 IC50) is below 5 µM. Also, the EC50 with PC-3 cells (Homo sapiens, PC-3, PC3 cells) is below 5 µM.
For the molecule `FC(F)(F)c1cccc(Nc2ncc3cccc(-c4ccc(NCCN5CCCC5)nc4)c3n2)c1` [Compound 1023, 8-(6-(2-(pyrrolidin-1-yl)ethylamino)pyridin-3-yl)-N-(3-(trifluoromethyl)phenyl)quinazolin-2-amine], the IC50 on PDK1 kinase (read-out: PDK1 IC50) was below 5 µM. The EC50 with PC-3 cells (Homo sapiens, PC-3, PC3 cells) is below 5 µM.
Consider `CC(=O)Nc1ccc(Nc2ncc3cccc(-c4ccc(NCCN5CCCC5)nc4)c3n2)cc1Cl` [Compound 1024, N-(2-chloro-4-(8-(6-(2-(pyrrolidin-1-yl)ethylamino)pyridin-3-yl)quinazolin-2-ylamino)phenyl)acetamide], for which the IC50 on PDK1 kinase (read-out: PDK1 IC50) was below 5 µM. In the assay with PC-3 cells (Homo sapiens, PC-3, PC3 cells), the EC50 is below 5 µM.
Consider `CC(C)Cn1cc(-c2ccc3cnc(Nc4ccc(N5CCN(C)CC5)cc4)nc3c2)cn1` [Compound 1025, 7-(1-isobutyl-1H-pyrazol-4-yl)-N-(4-(4-methylpiperazin-1-yl)phenyl)quinazolin-2-amine], for which, at PDK1 kinase (read-out: PDK1 IC50), the IC50 was below 5 µM. Also, in the assay with PC-3 cells (Homo sapiens, PC-3, PC3 cells), the EC50 was below 5 µM.
As for `Cc1ccc(Nc2ncc3ccc(O)c(C4CCN(C(C)C)CC4)c3n2)cc1NS(C)(=O)=O` [Compound 1026, N-(5-(7-hydroxy-8-(1-isopropylpiperidin-4-yl)quinazolin-2-ylamino)-2-methylphenyl)methanesulfonamide], at PDK1 kinase (read-out: PDK1 IC50), the IC50 is below 5 µM. Moreover, the EC50 in the assay with PC-3 cells (Homo sapiens, PC-3, PC3 cells) was below 5 µM.
As to `CC(=O)Nc1ccc(Nc2ncc3cccc(-c4ccc(NCCN5CCCC5)nc4)c3n2)cc1C` [Compound 1027, N-(2-methyl-4-(8-(6-(2-(pyrrolidin-1-yl)ethylamino)pyridin-3-yl)quinazolin-2-ylamino)phenyl)acetamide], at PDK1 kinase (read-out: PDK1 IC50), the IC50 was below 5 µM. The EC50 in the assay with PC-3 cells (Homo sapiens, PC-3, PC3 cells) was below 5 µM.
Regarding `CS(=O)(=O)c1ccc(Nc2ncc3cccc(-c4ccc(NCCN5CCCC5)nc4)c3n2)cc1` [Compound 1028, N-(4-(methylsulfonyl)phenyl)-8-(6-(2-(pyrrolidin-1-yl)ethylamino)pyridin-3-yl)quinazolin-2-amine], the IC50 on PDK1 kinase (read-out: PDK1 IC50) was below 5 µM. For the same molecule, the EC50 with PC-3 cells (Homo sapiens, PC-3, PC3 cells) fell in the range of 5 to 10 µM.
As for `CN1CCN(c2ccc(-c3cccc4cnc(Nc5ccc(S(=O)(=O)N6CCOCC6)cc5)nc34)cn2)CC1` [Compound 1029, 8-(6-(4-methylpiperazin-1-yl)pyridin-3-yl)-N-(4-(morpholinosulfonyl)phenyl)quinazolin-2-amine], the IC50 on PDK1 kinase (read-out: PDK1 IC50) is below 5 µM. For the same molecule, the EC50 in the assay on PC-3 cells (Homo sapiens, PC-3, PC3 cells) was below 5 µM.
`Cc1cc(Nc2ncc3ccc(O)c(C4CCN(C(C)C)CC4)c3n2)ccc1F` [Compound 1030, 2-(4-fluoro-3-methylphenylamino)-8-(1-isopropylpipenidin-4-yl)quinazolin-7-ol]: the IC50 on PDK1 kinase (read-out: PDK1 IC50) is below 5 µM. Besides, the EC50 in the assay with PC-3 cells (Homo sapiens, PC-3, PC3 cells) lay within 5 to 10 µM.
As for `C#Cc1cc(OC2CCCNCC2)c2nc(Nc3ccc(N4CCOCC4)cc3)ncc2c1` (stereo not drawn) [Compound 1031, 8-(azepan-4-yloxy)-6-ethynyl-N-(4-morpholinophenyl)quinazolin-2-amine], the IC50 at PDK1 kinase (setting [1]) is below 5 µM. Moreover, in the assay on PC-3 cells (Homo sapiens, PC-3, PC3 cells), the EC50 was below 5 µM.
For `C#Cc1cc(OC2CCNCC2)c2nc(Nc3ccc(C(=O)N4CCOCC4)cc3)ncc2c1Cl` [Compound 1032, (4-(5-chloro-6-ethynyl-8-(piperidin-4-yloxy)quinazolin-2-ylamino)phenyl)(morpholino)methanone], at PDK1 kinase (setting [1]), the IC50 is below 5 µM. In addition, the EC50 in the assay with PC-3 cells (Homo sapiens, PC-3, PC3 cells) is below 5 µM.
As to `COc1c(-c2cnn(C)c2)cc(Cl)c2cnc(Nc3ccc(C(=O)N4CCOCC4)cc3)nc12` [Compound 1033, (4-(5-chloro-8-methoxy-7-(1-methyl-1H-pyrazol-4-yl)quinazolin-2-ylamino)phenyl)(morpholino)methanone], on PDK1 kinase (setting [1]), the IC50 is below 5 µM. Moreover, the EC50 in the assay on PC-3 cells (Homo sapiens, PC-3, PC3 cells) is below 5 µM.
With `COc1c(-c2cnn(C)c2)cc(Cl)c2cnc(Nc3ccc(C(=O)NC(C)C)cc3)nc12` [Compound 1034, 4-(5-chloro-8-methoxy-7-(1-methyl-1H-pyrazol-4-yl)quinazolin-2-ylamino)-N-isopropylbenzamide], the IC50 at PDK1 kinase (setting [1]) is below 5 µM. Also, the EC50 with PC-3 cells (Homo sapiens, PC-3, PC3 cells) is below 5 µM.

(Values after patent US7932262B2 (Novartis AG, priority 2006, dated 2011).)
